Our source for the IC50 and Ki values is ChEMBL document CHEMBL1909046, “DrugMatrix in vitro pharmacology data”.

The term pIC50 denotes −log10 of the IC50, conventionally taken in molar units. A word on the pKi: it is −log10 of the Ki, conventionally taken in molar units.

SMILES strings stand for the structures. pIC50, pKi: −log10 of the molar value.

Experiment [1] deals with T1, Alpha-1B adrenergic receptor (Rattus norvegicus, UniProt P15823).
T1 sequence (P15823 whole entry): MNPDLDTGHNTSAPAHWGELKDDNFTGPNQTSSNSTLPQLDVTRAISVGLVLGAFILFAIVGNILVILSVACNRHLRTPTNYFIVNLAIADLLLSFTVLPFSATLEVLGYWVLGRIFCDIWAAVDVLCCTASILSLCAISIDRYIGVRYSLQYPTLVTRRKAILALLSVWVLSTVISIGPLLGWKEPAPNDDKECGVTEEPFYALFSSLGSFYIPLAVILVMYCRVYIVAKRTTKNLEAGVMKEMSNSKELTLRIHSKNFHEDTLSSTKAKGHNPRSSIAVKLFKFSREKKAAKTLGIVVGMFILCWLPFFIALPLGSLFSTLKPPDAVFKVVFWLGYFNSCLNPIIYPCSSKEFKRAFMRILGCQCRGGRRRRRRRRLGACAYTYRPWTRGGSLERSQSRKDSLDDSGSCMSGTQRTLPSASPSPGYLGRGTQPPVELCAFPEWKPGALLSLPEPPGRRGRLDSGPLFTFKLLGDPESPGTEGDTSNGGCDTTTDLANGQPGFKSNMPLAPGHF
The experiment in a line: DRUGMATRIX: Alpha-1B adrenergic receptor radioligand binding (ligand: prazosin). In kind it is cell membranes, Wistar, Liver, Membrane. The note with it: Not Active = under 50% inhibition at 10 µM.

Experiment [2] deals with T2, Vasoactive intestinal polypeptide receptor 1 (Homo sapiens, UniProt P32241).
T2 sequence (P32241 whole entry): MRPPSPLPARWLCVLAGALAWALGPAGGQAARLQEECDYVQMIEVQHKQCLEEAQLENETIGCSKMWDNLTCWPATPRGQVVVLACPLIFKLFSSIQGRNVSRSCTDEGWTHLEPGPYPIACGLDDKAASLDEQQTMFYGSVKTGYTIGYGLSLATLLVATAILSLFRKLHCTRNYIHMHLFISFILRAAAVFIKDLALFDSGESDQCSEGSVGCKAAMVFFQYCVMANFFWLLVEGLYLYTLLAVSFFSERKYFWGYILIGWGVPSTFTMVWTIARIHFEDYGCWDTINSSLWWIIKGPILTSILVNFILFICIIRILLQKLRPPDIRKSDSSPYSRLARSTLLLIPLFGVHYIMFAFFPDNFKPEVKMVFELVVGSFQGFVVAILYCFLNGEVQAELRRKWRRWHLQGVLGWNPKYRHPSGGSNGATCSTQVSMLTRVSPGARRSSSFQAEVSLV
In kind it is cell membranes, Membrane. The note with it: ht-29.

Experiment [3] addresses T3, Cysteinyl leukotriene receptor 1 (Homo sapiens, UniProt Q9Y271).
T3 sequence (Q9Y271 whole entry): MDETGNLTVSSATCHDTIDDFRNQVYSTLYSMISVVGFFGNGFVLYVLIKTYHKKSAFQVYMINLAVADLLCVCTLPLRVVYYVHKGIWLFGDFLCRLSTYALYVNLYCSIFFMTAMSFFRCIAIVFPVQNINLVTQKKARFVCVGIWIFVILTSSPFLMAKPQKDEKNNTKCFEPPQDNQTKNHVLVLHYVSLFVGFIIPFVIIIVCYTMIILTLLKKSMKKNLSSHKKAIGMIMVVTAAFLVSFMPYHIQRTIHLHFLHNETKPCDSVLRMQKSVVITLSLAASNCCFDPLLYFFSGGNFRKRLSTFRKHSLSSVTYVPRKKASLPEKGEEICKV
In kind it is cell membranes, CHO-K1, Membrane. The note with it: cho-k1.

The target of experiment [4] is T4, C-X-C chemokine receptor type 2 (Homo sapiens, UniProt P25025). Also: in other assays of this panel Not Active means under 50% inhibition at 10 µM.
T4 sequence (P25025 whole entry): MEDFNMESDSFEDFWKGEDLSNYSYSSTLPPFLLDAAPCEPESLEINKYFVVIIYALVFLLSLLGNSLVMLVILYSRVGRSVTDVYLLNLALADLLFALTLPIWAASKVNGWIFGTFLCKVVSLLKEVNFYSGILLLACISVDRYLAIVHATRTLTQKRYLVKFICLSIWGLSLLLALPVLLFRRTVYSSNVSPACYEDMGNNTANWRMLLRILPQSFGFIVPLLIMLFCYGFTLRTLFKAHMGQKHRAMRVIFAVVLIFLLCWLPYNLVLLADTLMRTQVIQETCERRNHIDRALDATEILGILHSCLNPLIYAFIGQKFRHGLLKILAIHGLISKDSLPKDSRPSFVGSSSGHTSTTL
In kind it is cell membranes, Membrane. The note with it: cho-k1.

Experiment [5] is described as follows: DRUGMATRIX: Leukotriene, BLT (LTB4) radioligand binding (ligand: [3H]LTB4). In kind it is cell membranes, Membrane. The note with it: u-937; Not Active = under 50% inhibition at 10 µM.
Experiment [6] concerns the target T5, Alpha-1D adrenergic receptor (Homo sapiens, UniProt P25100). Also: in other assays of this panel Not Active means under 50% inhibition at 10 µM.
T5 sequence (P25100 whole entry): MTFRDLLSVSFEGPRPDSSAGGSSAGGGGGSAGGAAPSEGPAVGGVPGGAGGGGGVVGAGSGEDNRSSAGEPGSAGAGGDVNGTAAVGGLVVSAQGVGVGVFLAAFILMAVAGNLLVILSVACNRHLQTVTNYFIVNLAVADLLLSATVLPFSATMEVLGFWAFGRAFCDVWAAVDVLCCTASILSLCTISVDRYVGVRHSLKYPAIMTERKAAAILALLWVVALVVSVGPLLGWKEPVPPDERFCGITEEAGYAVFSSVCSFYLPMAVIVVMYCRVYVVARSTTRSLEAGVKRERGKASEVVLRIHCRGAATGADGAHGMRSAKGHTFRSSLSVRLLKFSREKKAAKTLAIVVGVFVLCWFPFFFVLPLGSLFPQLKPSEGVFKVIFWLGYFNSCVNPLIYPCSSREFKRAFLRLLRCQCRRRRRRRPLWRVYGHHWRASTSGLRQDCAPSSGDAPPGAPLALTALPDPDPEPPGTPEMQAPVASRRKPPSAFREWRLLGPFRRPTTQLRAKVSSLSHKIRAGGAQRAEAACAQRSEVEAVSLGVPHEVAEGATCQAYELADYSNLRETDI
In kind it is cell membranes, HEK293, Membrane. The note with it: hek293.

The nature of experiment [7]: DRUGMATRIX: Phosphodiesterase PDE4 enzyme inhibition (substrate: [3H]cAMP + cAMP). The note with it: u-937; Not Active = under 50% inhibition at 10 µM.
Another experiment deals with Nitric oxide synthase 1 (Rattus norvegicus, UniProt P29476). In kind it is tissue-based, Cerebellum.
Chain of Nitric oxide synthase 1 (P29476 whole entry): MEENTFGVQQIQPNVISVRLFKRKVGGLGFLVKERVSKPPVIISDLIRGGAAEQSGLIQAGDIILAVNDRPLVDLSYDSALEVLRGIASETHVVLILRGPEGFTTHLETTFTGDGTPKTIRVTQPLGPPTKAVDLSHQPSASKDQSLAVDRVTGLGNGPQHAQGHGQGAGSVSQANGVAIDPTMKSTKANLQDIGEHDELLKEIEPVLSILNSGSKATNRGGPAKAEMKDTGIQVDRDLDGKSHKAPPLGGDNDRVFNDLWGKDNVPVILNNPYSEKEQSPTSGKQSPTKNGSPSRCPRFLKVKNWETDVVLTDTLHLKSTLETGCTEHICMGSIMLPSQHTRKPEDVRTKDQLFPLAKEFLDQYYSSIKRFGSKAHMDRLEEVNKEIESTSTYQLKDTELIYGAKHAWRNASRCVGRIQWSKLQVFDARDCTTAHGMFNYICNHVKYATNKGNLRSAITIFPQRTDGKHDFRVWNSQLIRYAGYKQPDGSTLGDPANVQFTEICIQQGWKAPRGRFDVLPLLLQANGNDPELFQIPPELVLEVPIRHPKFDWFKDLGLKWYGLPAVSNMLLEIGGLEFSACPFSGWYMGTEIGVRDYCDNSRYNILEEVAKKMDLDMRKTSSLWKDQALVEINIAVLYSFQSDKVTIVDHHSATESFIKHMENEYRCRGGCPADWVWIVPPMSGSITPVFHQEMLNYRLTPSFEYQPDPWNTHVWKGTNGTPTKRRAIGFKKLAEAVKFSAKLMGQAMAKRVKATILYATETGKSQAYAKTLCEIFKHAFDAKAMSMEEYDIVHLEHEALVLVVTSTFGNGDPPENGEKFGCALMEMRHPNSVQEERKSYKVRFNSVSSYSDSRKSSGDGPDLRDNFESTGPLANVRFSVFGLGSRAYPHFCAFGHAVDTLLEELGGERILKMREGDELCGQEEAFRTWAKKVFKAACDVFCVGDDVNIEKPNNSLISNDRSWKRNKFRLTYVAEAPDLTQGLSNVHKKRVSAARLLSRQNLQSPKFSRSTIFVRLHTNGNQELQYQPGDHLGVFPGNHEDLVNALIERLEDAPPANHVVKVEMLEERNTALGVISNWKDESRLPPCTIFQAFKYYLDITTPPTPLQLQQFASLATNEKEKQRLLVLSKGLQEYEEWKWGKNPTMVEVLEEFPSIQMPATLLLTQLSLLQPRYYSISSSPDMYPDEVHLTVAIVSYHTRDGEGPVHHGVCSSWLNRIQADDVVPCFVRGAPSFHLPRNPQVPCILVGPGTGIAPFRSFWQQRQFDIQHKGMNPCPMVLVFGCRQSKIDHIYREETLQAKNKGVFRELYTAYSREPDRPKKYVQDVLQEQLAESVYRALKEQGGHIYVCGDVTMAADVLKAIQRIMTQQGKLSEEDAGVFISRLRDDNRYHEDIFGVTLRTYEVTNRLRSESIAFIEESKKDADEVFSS

Take `CO[C@H]1/C=C/O[C@@]2(C)Oc3c(C)c(O)c4c(c3C2=O)C2=NC3(CCN(CC(C)C)CC3)NC2=C(NC(=O)/C(C)=C\C=C\[C@H](C)[C@H](O)[C@@H](C)[C@@H](O)[C@@H](C)[C@H](OC(C)=O)[C@@H]1C)C4=O` [RIFABUTIN]: the IC50 entry in experiment [1], in experiment [2], in experiment [3], in experiment [4], in experiment [5] and in experiment [6] was “Not Active” each time. In addition, the IC50 result (in experiment [7]; on Nitric oxide synthase 1) was “Not Active” in each case. Moreover, the Ki result in experiment [5] and in experiment [7] was “Not Active” throughout.
For `CC(C)c1nc(CN(C)C(=O)N[C@H](C(=O)N[C@@H](Cc2ccccc2)C[C@H](O)[C@H](Cc2ccccc2)NC(=O)OCc2cncs2)C(C)C)cs1` [RITONAVIR], the IC50 entry in experiment [1], in experiment [2], in experiment [3], in experiment [4], in experiment [5] and in experiment [6] was “Not Active” in each case. Moreover, the IC50 entry (in experiment [7]; on Nitric oxide synthase 1) was “Not Active” each time. In addition, the Ki entry in experiment [5] and in experiment [7] was “Not Active” throughout.
Consider `CC(C)CC(N(C)C)C1(c2ccc(Cl)cc2)CCC1` (stereo unspecified) [SIBUTRAMINE], for which the IC50 result in experiment [1], in experiment [2], in experiment [3], in experiment [4], in experiment [5] and in experiment [6] was “Not Active” throughout. The IC50 result (in experiment [7]; against Nitric oxide synthase 1) was “Not Active” in each case. Besides, the Ki result in experiment [5] and in experiment [7] was “Not Active” throughout.
Turning to `[H]/N=C(/N)N[C@H]1[C@H](O)[C@@H](O)[C@H](O[C@@H]2O[C@@H](C)[C@](O)(C=O)[C@H]2O[C@@H]2O[C@@H](CO)[C@H](O)[C@@H](O)[C@@H]2NC)[C@@H](N/C(N)=N\[H])[C@@H]1O` [STREPTOMYCIN], the IC50 entry in experiment [1], in experiment [2], in experiment [3], in experiment [4], in experiment [5] and in experiment [6] was “Not Active” each time. For the same compound, the IC50 result (in experiment [7]; at Nitric oxide synthase 1) was “Not Active” throughout. Besides, the Ki entry in experiment [5] and in experiment [7] was “Not Active” each time.
Regarding `COc1cc(NS(=O)(=O)c2ccc(N)cc2)nc(OC)n1` [SULFADIMETHOXINE], the IC50 entry in experiment [1], in experiment [2], in experiment [3], in experiment [4], in experiment [5] and in experiment [6] was “Not Active” throughout. Besides, the IC50 result (in experiment [7]; against Nitric oxide synthase 1) was “Not Active” throughout. In addition, the Ki result in experiment [5] and in experiment [7] was “Not Active” in each case.
Turning to `Cc1cc(C)nc(NS(=O)(=O)c2ccc(N)cc2)n1` [SULFAMETHAZINE], the IC50 result in experiment [1], in experiment [2], in experiment [3], in experiment [4], in experiment [5] and in experiment [6] was “Not Active” each time. For the same compound, the IC50 entry (in experiment [7]; against Nitric oxide synthase 1) was “Not Active” throughout. Also, the Ki entry in experiment [5] and in experiment [7] was “Not Active” each time.
`C[C@]1(Cn2ccnn2)[C@H](C(=O)O)N2C(=O)C[C@H]2S1(=O)=O` [TAZOBACTAM]: the IC50 entry in experiment [1], in experiment [2], in experiment [3], in experiment [4], in experiment [5] and in experiment [6] was “Not Active” each time. For the same compound, the IC50 result (in experiment [7]; on Nitric oxide synthase 1) was “Not Active” each time. Further, the Ki entry in experiment [5] and in experiment [7] was “Not Active” in each case.
For the compound `CN1C(C(=O)Nc2ccccn2)=C(O)c2sccc2S1(=O)=O` [TENOXICAM], the IC50 result in experiment [1], in experiment [2], in experiment [3], in experiment [4], in experiment [5] and in experiment [6] was “Not Active” each time. In addition, the IC50 entry (in experiment [7]; against Nitric oxide synthase 1) was “Not Active” each time. Also, the Ki entry in experiment [5] and in experiment [7] was “Not Active” in each case.
Regarding `CC(C)(C)c1ccc(C(O)CCCN2CCC(C(O)(c3ccccc3)c3ccccc3)CC2)cc1` (stereo unspecified) [TERFENADINE], the negative logarithm of the IC50 (pIC50) in experiment [1] (read-out: IC50) was 5.48. In experiment [1] (read-out: Ki), the pKi is 5.73. The IC50 entry in experiment [2], in experiment [3], in experiment [4], in experiment [5], in experiment [6] and in experiment [7] was “Not Active” in each case. Also, on Nitric oxide synthase 1, the IC50 entry is “Not Active”. The Ki result in experiment [5] and in experiment [7] was “Not Active” throughout.
Turning to `O=C1CCC(N2C(=O)c3ccccc3C2=O)C(=O)N1` (stereo unspecified) [THALIDOMIDE], the IC50 entry in experiment [1], in experiment [2], in experiment [3], in experiment [4], in experiment [5] and in experiment [6] was “Not Active” in each case. Moreover, the IC50 result (in experiment [7]; against Nitric oxide synthase 1) was “Not Active” each time. For the same compound, the Ki entry in experiment [5] and in experiment [7] was “Not Active” throughout.
In the case of `Cc1cccc(Nc2ccncc2S(=O)(=O)NC(=O)NC(C)C)c1` [TORSEMIDE], the IC50 result in experiment [1], in experiment [2], in experiment [3], in experiment [4], in experiment [5] and in experiment [6] was “Not Active” throughout. For the same compound, the IC50 result (in experiment [7]; against Nitric oxide synthase 1) was “Not Active” each time. The Ki entry in experiment [5] and in experiment [7] was “Not Active” in each case.
In the case of `CC(C)C[C@H](NC(=O)[C@@H](O)[C@H](N)Cc1ccccc1)C(=O)O` [UBENIMEX], the IC50 result in experiment [1], in experiment [2], in experiment [3], in experiment [4], in experiment [5] and in experiment [6] was “Not Active” each time. Further, the IC50 result (in experiment [7]; on Nitric oxide synthase 1) was “Not Active” throughout. For the same compound, the Ki entry in experiment [5] and in experiment [7] was “Not Active” throughout.
